# Measurements reported in patent US11345700B2, “Methods of preparing inhibitors of influenza viruses replication” (priority 2013, dated 2022).
# Tested on: influenza A strains
# Experiment: microbe, parasite or virus in culture
# Format: cell-based
# Conditions: H3N2, MDCK, read-out: Cell Protection Assay EC50 ± SD, A/Texas/12/2007, H3N2, amantadine resistance (phenotypic), oseltamivir carboxylate resistance NA 119V
smiles,measurement,value
O=C(O)[C@H]1[C@H]2CC[C@H](CC2)[C@@H]1Nc1nc(-c2c[nH]c3ncc(F)cc23)ncc1F [Compound (1)],EC50,0.65 ± 0.22 nM
